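Values below derive from 48-hour exposures of cells grown in 96-well plates, with endpoints linearly interpolated between the two concentrations bracketing the appropriate inhibition level. GI50 marks 50% less growth.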 Active and inactive are the calls of the source. Cut-off read from the data, not from the text of the source: active = GI50 up to about 1.1 µM and inactive = higher.
Columns and labels:
Assay in all cases: growth of human tumour cells (NCI), 48 h
[1] = system: CAKI-1
[2] = system: NCI-H226
[3] = system: 786-0
[4] = system: SK-MEL-5
[5] = system: XF498
[6] = system: NCI-H460
[7] = system: LXFL 529
[8] = system: A498
[9] = system: SK-MEL-28
[10] = system: TK-10
[11] = system: OVCAR-4
[12] = system: OVCAR-8
[13] = system: K562
[14] = system: SN12C
[15] = system: UACC-257
[16] = system: EKVX
[17] = system: HCT-116
[18] = system: NCI-H23
[19] = system: HCT-15
[20] = system: HL-60
[21] = system: M14
[22] = system: A549
[23] = system: RPMI-8226
[24] = system: DLD-1
[25] = system: UACC-62
[26] = system: DMS-114
[27] = system: U-251
[28] = system: UO-31
[29] = system: SK-OV-3
[30] = system: Malme-3M
[31] = system: HOP-62
[32] = system: SF-295
[33] = system: ACHN
[34] = system: SR
[35] = system: SF-539
[36] = system: LOX IMVI
[37] = system: CCRF-CEM
[38] = system: SNB-78
[39] = system: NCI-H522
[40] = system: SW-620
[41] = system: SF-268
[42] = system: HT-29
[43] = system: RXF 393
[44] = system: COLO 205
[45] = system: SNB-75
[46] = system: HOP-18
[47] = system: IGROV-1
[48] = system: M19-MEL
[49] = system: HOP-92
[50] = system: HCC 2998
[51] = system: OVCAR-5
[52] = system: KM-20L2
[53] = system: OVCAR-3
[54] = system: KM12
[55] = system: MOLT-4
[56] = system: SK-MEL-2
[57] = system: SNB-19

## CCOC(=O)C(/C(=N\NC(=O)OC)C(=O)Nc1cc(OC)ccc1OC)c1cnc2ccccc2n1 (centres undefined)
[1]
  GI50: > 100 µM (inactive)
[2]
  GI50: > 100 µM (inactive)
[3]
  GI50: > 100 µM (inactive)
[4]
  GI50: > 100 µM (inactive)
[5]
  GI50: > 100 µM (inactive)
[6]
  GI50: > 100 µM (inactive)
[7]
  GI50: > 100 µM (inactive)
[8]
  GI50: > 100 µM (inactive)
[9]
  GI50: > 100 µM (inactive)
[10]
  GI50: > 100 µM (inactive)
[11]
  GI50: > 100 µM (inactive)
[12]
  GI50: > 100 µM (inactive)
[13]
  GI50: > 100 µM (inactive)
[14]
  GI50: > 100 µM (inactive)
[15]
  GI50: > 100 µM (inactive)
[16]
  GI50: > 100 µM (inactive)
[17]
  GI50: > 100 µM (inactive)
[18]
  GI50: > 100 µM (inactive)
[19]
  GI50: > 100 µM
[20]
  GI50: 69.2 µM (inactive)
[21]
  GI50: > 100 µM (inactive)
[22]
  GI50: > 100 µM (inactive)
[23]
  GI50: > 100 µM (inactive)
[24]
  GI50: > 100 µM (inactive)
[25]
  GI50: > 100 µM (inactive)
[26]
  GI50: > 100 µM (inactive)
[27]
  GI50: > 100 µM (inactive)
[28]
  GI50: > 100 µM (inactive)
[29]
  GI50: > 100 µM (inactive)
[30]
  GI50: > 100 µM (inactive)
[31]
  GI50: > 100 µM (inactive)
[32]
  GI50: > 100 µM (inactive)
[33]
  GI50: > 100 µM (inactive)
[34]
  GI50: > 100 µM (inactive)
[35]
  GI50: > 100 µM (inactive)
[36]
  GI50: > 100 µM (inactive)
[37]
  GI50: > 100 µM (inactive)
[38]
  GI50: > 100 µM (inactive)
[39]
  GI50: > 100 µM (inactive)
[40]
  GI50: > 100 µM (inactive)
[41]
  GI50: > 100 µM (inactive)
[42]
  GI50: > 100 µM (inactive)
[43]
  GI50: > 100 µM (inactive)
[44]
  GI50: > 100 µM (inactive)
[45]
  GI50: > 100 µM (inactive)
[46]
  GI50: 85.9 µM (inactive)
[47]
  GI50: > 100 µM (inactive)
[48]
  GI50: > 100 µM (inactive)
[49]
  GI50: > 100 µM (inactive)
[50]
  GI50: > 100 µM (inactive)

## O=C(CCC/C(CC(=O)c1ccc(Br)cc1)=N\O)Nc1ccccc1
[51]
  GI50: 28.2 µM (inactive)
[2]
  GI50: > 100 µM (inactive)
[3]
  GI50: > 100 µM (inactive)
[52]
  GI50: 91.4 µM (inactive)
[4]
  GI50: 43.3 µM (inactive)
[5]
  GI50: > 100 µM (inactive)
[6]
  GI50: > 100 µM (inactive)
[7]
  GI50: > 100 µM (inactive)
[9]
  GI50: > 100 µM (inactive)
[53]
  GI50: > 100 µM (inactive)
[10]
  GI50: > 100 µM (inactive)
[11]
  GI50: 76.9 µM (inactive)
[54]
  GI50: > 100 µM (inactive)
[12]
  GI50: > 100 µM (inactive)
[55]
  GI50: 24.5 µM (inactive)
[14]
  GI50: > 100 µM (inactive)
[15]
  GI50: 67.9 µM (inactive)
[16]
  GI50: > 100 µM (inactive)
[17]
  GI50: > 100 µM (inactive)
[18]
  GI50: > 100 µM (inactive)
[20]
  GI50: 65.2 µM (inactive)
[21]
  GI50: > 100 µM (inactive)
[22]
  GI50: > 100 µM (inactive)
[23]
  GI50: 10.7 µM (inactive)
[24]
  GI50: 96.4 µM (inactive)
[25]
  GI50: 46 µM (inactive)
[26]
  GI50: 25.5 µM (inactive)
[27]
  GI50: > 100 µM (inactive)
[28]
  GI50: > 100 µM (inactive)
[56]
  GI50: > 100 µM (inactive)
[30]
  GI50: > 100 µM (inactive)
[31]
  GI50: > 100 µM (inactive)
[32]
  GI50: > 100 µM (inactive)
[33]
  GI50: 96.6 µM (inactive)
[36]
  GI50: > 100 µM (inactive)
[37]
  GI50: 70.3 µM (inactive)
[38]
  GI50: > 100 µM (inactive)
[40]
  GI50: > 100 µM (inactive)
[41]
  GI50: > 100 µM (inactive)
[42]
  GI50: 57.4 µM (inactive)
[43]
  GI50: 45.9 µM (inactive)
[44]
  GI50: > 100 µM (inactive)
[45]
  GI50: > 100 µM (inactive)
[46]
  GI50: > 100 µM (inactive)
[47]
  GI50: 57.3 µM (inactive)
[48]
  GI50: > 100 µM (inactive)
[49]
  GI50: 73.3 µM (inactive)
[57]
  GI50: > 100 µM (inactive)
[50]
  GI50: > 100 µM (inactive)
